According to patent US20200237764A1, “DRUG COMBINATIONS FOR TARGETING MULTIPLE MUTATIONS IN CANCER” (CureMatch, Inc., priority 2017, published 2020):

Test system: CAPAN2 cells
Assay: WST-1 colorimetric cell viability assay in CAPAN2 cells
Assay type: cell-based, human
Settings: for IC20 / IC50: Homo sapiens, Capan-2, CAPAN2 cell survival; for cell death: at 300 nM, 48 hrs
Method: The human pancreatic cancer cell line CAPAN2, was purchased from the American Type Culture Collection (ATCC; Manassas, Va.). Cells were grown in McCoy's Modified 5A media supplemented with 10% FCS, 1× penicillin/streptomycin and 1× amphotericin. For testing, cells were released from the dishes by treatment with PBS (without calcium) for ˜30 min followed by 0.25% trypsin-EDTA for 5 minutes at 37 C. Cells were collected in a 15 ml centrifuge tube and spun down in a clinical centrifuge for 5 min and then re-suspended in 1 ml of fresh media and the cells were counted using a hemocytometer. Cells (1×10^3-5×10^3) were then seeded into 96-well plates in 100 μL of media and the cells were incubated for 48 hours. After 48 hours, the media was replaced and the cells were re-incubated for another 24 hours prior to treatment with the drugs.
Stock drug solutions were prepared in complete media from master stock solutions prepared in DMSO according to the manufacturer's instructions. Using these stock solutions, 1:1, 2:1, 5:1, and 10:1 volume-volume (v/v) mixtures of regorafenib and trametinib were prepared. These mixtures were then two-fold serially diluted to generate a range of 20 concentrations in each case. The cells were incubated in drug mixtures for 48-72 hours before cell viability assay/assessment.
Cell viability was determined using a WST-1 colorimetric cell proliferation assay (Roche), according to manufacturer's instructions. The stable tetrazolium salt WST-1 is cleaved to a soluble formazan by a complex cellular mechanism that occurs primarily at the cell surface. This reduction is largely dependent on the glycolytic production of NAD(P)H in viable cells. Therefore, the amount of formazan dye formed, and estimated using a spectrophotometer (BIO-TEK 340, BIOTEK) directly correlates to the number of metabolically active cells in the culture. All testing points were done at least in triplicate.

[1] = monotherapy, two-fold serial dilution 2 nM to 1 mM, 48-72 hours

Nc1ccn([C@@H]2O[C@H](CO)[C@@H](O)C2(F)F)c(=O)n1 [gemcitabine]
effect on CAPAN2 cell survival (in words) (CAPAN2 cells, 48-72 hours): little, if any, effect on cell survival
maximum decrease in cell viability (CAPAN2 cells, concentration of 1 mM, 48-72 hours): −30%
IC20 [1]: 111000 nM

CNC(=O)c1cc(Oc2ccc(NC(=O)Nc3ccc(Cl)c(C(F)(F)F)c3)c(F)c2)ccn1 [regorafenib]
effect on CAPAN2 cell survival (in words) (CAPAN2 cells, 48-72 hours): significant reduction in cell survival
cell death (CAPAN2 cells): −2%
IC50 (2 nM to 1 mM): 7.1 µM
IC20 [1]: 2000 nM

CC(=O)Nc1cccc(-n2c(=O)n(C3CC3)c(=O)c3c(Nc4ccc(I)cc4F)n(C)c(=O)c(C)c32)c1 [trametinib]
cell death (CAPAN2 cells): −10%
IC50 (100 μM to 0.2 nM, 48-72 hours): 0.028 µM
IC20 (48-72 hours): 4 nM
